Experimental data from ChEMBL document CHEMBL3272130, “Synthesis and hypotensive activity of some cyclopentano-1,2,3,4-tetrahydroisoquinolines” (J Med Chem, 1977).

Experiments:
Rattus norvegicus [1] = experiment: Hypotensive activity in deoxycorticosterone acetate treated hypertensive CD rat assessed as change in blood pressure at 20 mg, ip after 2 hrs relative to control; format: functional
Rattus norvegicus [2] = experiment: Hypotensive activity in deoxycorticosterone acetate treated hypertensive CD rat assessed as change in blood pressure at 50 mg, ip after 2 hrs relative to control; format: functional
Rattus norvegicus [3] = experiment: Cardiovascular activity in deoxycorticosterone acetate treated hypertensive CD rat assessed as change in heart rate at 50 mg, ip after 24 hrs relative to control; format: ADME, organism-based; settings: in vivo
Rattus norvegicus [4] = experiment: Cardiovascular activity in deoxycorticosterone acetate treated hypertensive CD rat assessed as change in heart rate at 50 mg, ip after 4 hrs relative to control; format: ADME, organism-based; settings: in vivo
Rattus norvegicus [5] = experiment: Cardiovascular activity in deoxycorticosterone acetate treated hypertensive CD rat assessed as change in heart rate at 50 mg, ip after 2 hrs relative to control; format: ADME, organism-based; settings: in vivo
Rattus norvegicus [6] = experiment: Cardiovascular activity in deoxycorticosterone acetate treated hypertensive CD rat assessed as change in heart rate at 20 mg, ip after 4 hrs relative to control; format: ADME, organism-based; settings: in vivo
Rattus norvegicus [7] = experiment: Cardiovascular activity in deoxycorticosterone acetate treated hypertensive CD rat assessed as change in heart rate at 20 mg, ip after 2 hrs relative to control; format: ADME, organism-based; settings: in vivo
Rattus norvegicus [8] = experiment: Cardiovascular activity in deoxycorticosterone acetate treated hypertensive CD rat assessed as change in heart rate at 20 mg, ip after 1 hr relative to control; format: ADME, organism-based; settings: in vivo
Rattus norvegicus [9] = experiment: Cardiovascular activity in deoxycorticosterone acetate treated hypertensive CD rat assessed as change in heart rate at 20 mg, ip after 24 hrs relative to control; format: ADME, organism-based; settings: in vivo
Rattus norvegicus [10] = experiment: Cardiovascular activity in deoxycorticosterone acetate treated hypertensive CD rat assessed as change in heart rate at 50 mg, ip after 1 hr relative to control; format: ADME, organism-based; settings: in vivo
Rattus norvegicus [11] = experiment: Hypotensive activity in deoxycorticosterone acetate treated hypertensive CD rat assessed as change in blood pressure at 20 mg, ip after 24 hrs relative to control; format: functional
Rattus norvegicus [12] = experiment: Hypotensive activity in deoxycorticosterone acetate treated hypertensive CD rat assessed as change in blood pressure at 50 mg, ip after 24 hrs relative to control; format: functional
Rattus norvegicus [13] = experiment: Hypotensive activity in deoxycorticosterone acetate treated hypertensive CD rat assessed as change in blood pressure at 20 mg, ip after 4 hrs relative to control; format: functional
[14] = Toxicity in ip dosed Swiss-Webster mouse after 24 hrs; format: organism-based; settings: in vivo
Rattus norvegicus [15] = experiment: Hypotensive activity in deoxycorticosterone acetate treated hypertensive CD rat assessed as change in blood pressure at 50 mg, ip after 1 hr relative to control; format: functional
Rattus norvegicus [16] = experiment: Hypotensive activity in deoxycorticosterone acetate treated hypertensive CD rat assessed as change in blood pressure at 50 mg, ip after 4 hrs relative to control; format: functional
Rattus norvegicus [17] = experiment: Hypotensive activity in deoxycorticosterone acetate treated hypertensive CD rat assessed as change in blood pressure at 20 mg, ip after 1 hr relative to control; format: functional
Rattus norvegicus [18] = experiment: Hypotensive activity in deoxycorticosterone acetate treated hypertensive CD rat assessed as change in blood pressure at 100 mg, ip after 4 hrs relative to control; format: functional
Rattus norvegicus [19] = experiment: Cardiovascular activity in deoxycorticosterone acetate treated hypertensive CD rat assessed as change in heart rate at 100 mg, ip after 4 hrs relative to control; format: ADME, organism-based; settings: in vivo
Rattus norvegicus [20] = experiment: Cardiovascular activity in deoxycorticosterone acetate treated hypertensive CD rat assessed as change in heart rate at 100 mg, ip after 2 hrs relative to control; format: ADME, organism-based; settings: in vivo
Rattus norvegicus [21] = experiment: Cardiovascular activity in deoxycorticosterone acetate treated hypertensive CD rat assessed as change in heart rate at 100 mg, ip after 24 hrs relative to control; format: ADME, organism-based; settings: in vivo
Rattus norvegicus [22] = experiment: Hypotensive activity in deoxycorticosterone acetate treated hypertensive CD rat assessed as change in blood pressure at 100 mg, ip after 2 hrs relative to control; format: functional
Rattus norvegicus [23] = experiment: Hypotensive activity in deoxycorticosterone acetate treated hypertensive CD rat assessed as change in blood pressure at 100 mg, ip after 1 hr relative to control; format: functional
Rattus norvegicus [24] = experiment: Hypotensive activity in deoxycorticosterone acetate treated hypertensive CD rat assessed as change in blood pressure at 100 mg, ip after 24 hrs relative to control; format: functional
Rattus norvegicus [25] = experiment: Cardiovascular activity in deoxycorticosterone acetate treated hypertensive CD rat assessed as change in heart rate at 100 mg, ip after 1 hr relative to control; format: ADME, organism-based; settings: in vivo

| Structure (SMILES) | Activity (Rattus norvegicus [2]) [%] | Activity (Rattus norvegicus [3]) [%] | Activity (Rattus norvegicus [4]) [%] | Activity (Rattus norvegicus [5]) [%] | Activity (Rattus norvegicus [10]) [%] | Activity (Rattus norvegicus [12]) [%] | LD50 at 24 h [14] [mg/kg] | Activity (Rattus norvegicus [15]) [%] | Activity (Rattus norvegicus [16]) [%] | other results |
| --- | --- | --- | --- | --- | --- | --- | --- | --- | --- | --- |
| Br.COc1c2c(c3c(c1OC)CN(C)CC3)CCC2 | -2.9 | -3.8 | 1.6 | -4.4 | -8.7 | -4.6 | 100 | -3 | -6.3 | Activity (Rattus norvegicus [1]): 5.5%; Activity (Rattus norvegicus [6]): 8.5%; Activity (Rattus norvegicus [7]): 9.2%; Activity (Rattus norvegicus [8]): 3.5%; Activity (Rattus norvegicus [9]): 1.5%; Activity (Rattus norvegicus [11]): -2.9%; Activity (Rattus norvegicus [13]): -4.2%; Activity (Rattus norvegicus [17]): 6.3% |
| COc1ccc(C(=O)N2CCc3c4c(c(OC)c(OC)c3C2)CCC4)cc1OC | – | – | – | – | – | – | 150 | – | – | Activity (Rattus norvegicus [1]): -1.4%; Activity (Rattus norvegicus [6]): 2.2%; Activity (Rattus norvegicus [7]): 8.9%; Activity (Rattus norvegicus [8]): 3.8%; Activity (Rattus norvegicus [9]): 5.7%; Activity (Rattus norvegicus [11]): 5.6%; Activity (Rattus norvegicus [13]): -3.1%; Activity (Rattus norvegicus [17]): -4% |
| COc1ccc(CN2CCc3c4c(c(OC)c(OC)c3C2)CCC4)cc1OC.Cl | -4.2 | -1.3 | 10.2 | 9 | 13 | 0.9 | 141 | -8.8 | -0.7 | – |
| COc1ccc(CC(=O)N2CCc3c4c(c(OC)c(OC)c3C2)CCC4)cc1OC | – | – | – | – | – | – | 160 | – | – | Activity (Rattus norvegicus [1]): -3.9%; Activity (Rattus norvegicus [6]): 1.3%; Activity (Rattus norvegicus [7]): 1.8%; Activity (Rattus norvegicus [8]): 1.9%; Activity (Rattus norvegicus [9]): -6.7%; Activity (Rattus norvegicus [11]): -3.1%; Activity (Rattus norvegicus [13]): -6.3%; Activity (Rattus norvegicus [17]): 5.4% |
| Br.COc1ccc(CCN2CCc3c4c(c(OC)c(OC)c3C2)CCC4)cc1OC | -11.3 | 2.4 | 5.4 | 17.6 | 22 | -2.8 | 125 | -26 | -6.6 | – |
| COc1c2c(c3c(c1OC)CN(CC(c1ccccc1)c1ccccc1)CC3)CCC2 | – | – | – | – | – | – | > 1000 | – | – | Activity (Rattus norvegicus [1]): 1.1%; Activity (Rattus norvegicus [18]): -11.2%; Activity (Rattus norvegicus [19]): 2.4%; Activity (Rattus norvegicus [20]): 2.4%; Activity (Rattus norvegicus [6]): 0.8%; Activity (Rattus norvegicus [7]): 10.7%; Activity (Rattus norvegicus [21]): -2.4%; Activity (Rattus norvegicus [8]): 7.4%; Activity (Rattus norvegicus [9]): -5%; Activity (Rattus norvegicus [22]): -12.7%; Activity (Rattus norvegicus [11]): -3%; Activity (Rattus norvegicus [13]): -2.9%; Activity (Rattus norvegicus [23]): -10.7%; Activity (Rattus norvegicus [17]): 1.4%; Activity (Rattus norvegicus [24]): -3.6%; Activity (Rattus norvegicus [25]): 8.7% |
| COc1c2c(c3c(c1OC)CN(C(=O)CC(c1ccccc1)c1ccccc1)CC3)CCC2 | – | – | – | – | – | – | 100 | – | – | Activity (Rattus norvegicus [1]): -6.9%; Activity (Rattus norvegicus [6]): 2.4%; Activity (Rattus norvegicus [7]): 15.8%; Activity (Rattus norvegicus [8]): 16.8%; Activity (Rattus norvegicus [9]): -1.8%; Activity (Rattus norvegicus [11]): -2.1%; Activity (Rattus norvegicus [13]): -5%; Activity (Rattus norvegicus [17]): -4.4% |
| COc1c2c(c3c(c1OC)CN(CCC(c1ccccc1)c1ccccc1)CC3)CCC2 | – | – | – | – | – | – | 1000 | – | – | Activity (Rattus norvegicus [18]): -6.7%; Activity (Rattus norvegicus [19]): 0.8%; Activity (Rattus norvegicus [20]): 4.6%; Activity (Rattus norvegicus [21]): 0.6%; Activity (Rattus norvegicus [22]): -7.9%; Activity (Rattus norvegicus [23]): -3.5%; Activity (Rattus norvegicus [24]): -7%; Activity (Rattus norvegicus [25]): 4% |
| Br.CN1CCc2c(c(O)c(O)c3c2CCC3)C1 | 2.6 | 3 | 4.1 | 4.8 | 8.2 | -3.6 | 150 | -1.1 | 3 | – |
| CC(=O)Oc1c2c(c3c(c1OC(C)=O)CN(C)CC3)CCC2.O=C(O)C(F)(F)F | 5.2 | 0.3 | 2.6 | 7.3 | 14.6 | -5.1 | 200 | -13.1 | -0.6 | – |
| COc1ccc(C(=O)N2CCc3c(c4c(c(OC)c3OC)CCC4)C2)cc1OC | – | – | – | – | – | – | > 1000 | – | – | Activity (Rattus norvegicus [18]): -3.4%; Activity (Rattus norvegicus [19]): -1.2%; Activity (Rattus norvegicus [20]): 3.4%; Activity (Rattus norvegicus [21]): -6.5%; Activity (Rattus norvegicus [22]): -8.8%; Activity (Rattus norvegicus [23]): -12.1%; Activity (Rattus norvegicus [24]): -6%; Activity (Rattus norvegicus [25]): 0.2% |
| Br.COc1ccc(CN2CCc3c(c4c(c(OC)c3OC)CCC4)C2)cc1OC | -2.4 | -9.1 | 1 | 0.4 | 0.4 | 3.3 | 200 | -8.4 | -1 | – |
| COc1ccc(CC(=O)N2CCc3c(c4c(c(OC)c3OC)CCC4)C2)cc1OC | – | – | – | – | – | – | 500 | – | – | – |
| Br.COc1ccc(CCN2CCc3c(c4c(c(OC)c3OC)CCC4)C2)cc1OC | – | – | – | – | – | – | 100 | – | – | – |
| COc1c2c(c3c(c1OC)CCN(C(=O)C(c1ccccc1)c1ccccc1)C3)CCC2 | – | – | – | – | – | – | 200 | – | – | – |
| COc1c2c(c3c(c1OC)CCN(CC(c1ccccc1)c1ccccc1)C3)CCC2 | – | – | – | – | – | – | > 1000 | – | – | Activity (Rattus norvegicus [18]): -2%; Activity (Rattus norvegicus [19]): 8.6%; Activity (Rattus norvegicus [20]): 25.4%; Activity (Rattus norvegicus [21]): -0.5%; Activity (Rattus norvegicus [22]): -3.4%; Activity (Rattus norvegicus [23]): -5%; Activity (Rattus norvegicus [24]): 4%; Activity (Rattus norvegicus [25]): 18.5% |
| Br.CN1CCc2c(O)c(O)c3c(c2C1)CCC3 | -3.5 | -8.6 | 4.6 | 5.1 | -1.9 | -8.6 | 160 | -9.1 | -5.7 | – |
| CC(=O)Oc1c2c(c3c(c1OC(C)=O)CCN(C)C3)CCC2 | – | – | – | – | – | – | 150 | – | – | – |
| C[C@](N)(Cc1ccc(O)c(O)c1)C(=O)O [METHYLDOPA] | -50 | -19.3 | 31 | 104.1 | 106.2 | -16.5 | – | -31 | -47.7 | – |
